Results taken from PMC3603284 (Therapeutic drug monitoring, 2013).

Assay: Week 2 plasma trough protease inhibitor concentration
Design: species or system human
Details: in vivo

CC(C)CN(C[C@@H](O)[C@H](Cc1ccccc1)NC(=O)O[C@H]1CCOC1)S(=O)(=O)c1ccc(N)cc1 [amprenavir]
decrease in the mean trough concentration per C allele (human, 2 weeks): 35%

CC(C)c1nc(CN(C)C(=O)N[C@H](C(=O)N[C@@H](Cc2ccccc2)C[C@H](O)[C@H](Cc2ccccc2)NC(=O)OCc2cncs2)C(C)C)cs1 [ritonavir]
week 2 trough measures below the assay limit of quantification (200 ng/ml) (human, 2 weeks): 86% | association of SLCO1B1 521T→C with week 2 trough concentration: no significant association

CC(C)(C)NC(=O)[C@@H]1C[C@@H]2CCCC[C@@H]2CN1C[C@@H](O)[C@H](Cc1ccccc1)NC(=O)[C@H](CC(N)=O)NC(=O)c1ccc2ccccc2n1 [saquinavir]
association of SLCO1B1 521T→C with week 2 trough concentration: no significant association
